The subject of assay [1] is FK-RAST (DNA, G4) AGGGCGGTGTGGGAAGAGGGA
In words: FRET melting. The note with it: 10 mM K+, 90 mM Li+; 10 mM lithium cacodylate pH 7.2; 0.2 µM DNA, 2 µM compound.

For assay [2], the system named is FdxT (DNA, hairpin, hexaethylene glycol linker between 10 and 11) TATAGCTATATATAGCTATA
As to the kind of experiment: FRET melting. The settings on record: 10 mM K+, 90 mM Li+; 10 mM lithium cacodylate pH 7.2; 0.2 µM DNA, 2 µM compound.

As to `CN1CCN(CCCCNCc2ccc(-c3nc(-c4ccc(CNCCCCN5CCN(C)CC5)cc4)c4cc(-c5ccccc5)ccc4n3)cc2)CC1` [Compound 12e, 2,4-bis{4-[(4-(4-methylpiperazin-1-yl)butyl)aminomethyl]phenyl}-6-phenylquinazoline], the ΔT1/2 in assay [1] came to 33.1 ± 2.1 °C; in assay [2], 5.4 ± 1.6 °C.

The values above are taken from publication PMC10819771 (Pharmaceuticals, 2023).
